In paper PMC5218480 (PLoS ONE, 2017):

System: MV-4-11 cells
Experiment: Gene expression microarray analysis (Affymetrix PrimeView) and GSEA
Assay type: cell-based, human
Parameters: RFU PODN (11730768_x_at) / Fold change /veh PODN (11730768_x_at) / RFU LINC00158 (11744669_a_at) / Fold change /veh LINC00158 (11744669_a_at) / RFU DUSP10 (11751237_a_at) / Fold change /veh DUSP10 (11751237_a_at) / RFU ID3 (11757404_x_at) / Fold change /veh ID3 (11757404_x_at) / RFU PLEKHG5 (11737974_s_at) / Fold change /veh PLEKHG5 (11737974_s_at) / RFU LRRC4B (11730491_at) / Fold change /veh LRRC4B (11730491_at) / RFU GIMAP4 (11747438_a_at) / Fold change /veh GIMAP4 (11747438_a_at) / RFU KRT8 (11758183_x_at) / Fold change /veh KRT8 (11758183_x_at) / RFU CNN1 (11734310_a_at) / Fold change /veh CNN1 (11734310_a_at) / RFU VPS37D (11726825_at) / Fold change /veh VPS37D (11726825_at) / RFU C10orf10 (11716522_x_at) / Fold change /veh C10orf10 (11716522_x_at) / RFU KIR2DL2 /// KIR2DL4 /// KIR2DL5A /// KIR2DL5B /// KIR2DS1 /// KIR2DS2 /// KIR2DS3 /// KIR2DS4 /// KIR3DL3 /// KIR3DL3 /// KIR3DS1 (11738374_at) / Fold change /veh KIR2DL2 /// KIR2DL4 /// KIR2DL5A /// KIR2DL5B /// KIR2DS1 /// KIR2DS2 /// KIR2DS3 /// KIR2DS4 /// KIR3DL3 /// KIR3DL3 /// KIR3DS1 (11738374_at) / RFU C1QL1 (11718748_at) / Fold change /veh C1QL1 (11718748_at) / RFU TMPRSS4 (11747572_a_at) / Fold change /veh TMPRSS4 (11747572_a_at) / RFU HAMP (11756126_x_at) / Fold change /veh HAMP (11756126_x_at) / RFU RNFT2 (11725882_a_at) / Fold change /veh RNFT2 (11725882_a_at) / RFU NR4A2 (11747474_a_at) / Fold change /veh NR4A2 (11747474_a_at) / RFU ABCC12 (11746883_a_at) / Fold change /veh ABCC12 (11746883_a_at) / RFU TMEM136 (11760407_x_at) / Fold change /veh TMEM136 (11760407_x_at) / RFU CLDN22 /// WWC2 (11732394_at) / Fold change /veh CLDN22 /// WWC2 (11732394_at) / RFU HLA-DPB1 (11760878_x_at) / Fold change /veh HLA-DPB1 (11760878_x_at) / RFU SPINT1 (11716480_a_at) / Fold change /veh SPINT1 (11716480_a_at) / RFU GAP43 (11754022_s_at) / Fold change /veh GAP43 (11754022_s_at) / RFU A4GNT (11735810_at) / Fold change /veh A4GNT (11735810_at) / RFU PRB3 (11715151_x_at) / Fold change /veh PRB3 (11715151_x_at) / RFU TUBB4B (11761932_at) / Fold change /veh TUBB4B (11761932_at) / RFU CAPN14 (11732068_a_at) / Fold change /veh CAPN14 (11732068_a_at) / RFU TMCC2 (11721928_a_at) / Fold change /veh TMCC2 (11721928_a_at) / RFU IRGQ (11745062_a_at) / Fold change /veh IRGQ (11745062_a_at) / RFU FAM174B (11720279_a_at) / Fold change /veh FAM174B (11720279_a_at) / RFU TMPRSS4 (11748680_a_at) / Fold change /veh TMPRSS4 (11748680_a_at) / RFU FAM212B (11763350_a_at) / Fold change /veh FAM212B (11763350_a_at) / RFU PLEKHG5 (11743358_a_at) / Fold change /veh PLEKHG5 (11743358_a_at) / RFU ZSCAN30 (11745921_a_at) / Fold change /veh ZSCAN30 (11745921_a_at) / RFU CMKLR1 (11741424_a_at) / Fold change /veh CMKLR1 (11741424_a_at) / RFU LOC101060620 /// MAPK8IP1 (11723275_at) / Fold change /veh LOC101060620 /// MAPK8IP1 (11723275_at) / RFU SPTSSB (11747773_x_at) / Fold change /veh SPTSSB (11747773_x_at) / RFU PRSS12 (11739890_at) / Fold change /veh PRSS12 (11739890_at) / RFU BIN1 (11741810_x_at) / Fold change /veh BIN1 (11741810_x_at) / RFU WNT11 (11732464_a_at) / Fold change /veh WNT11 (11732464_a_at) / RFU C10orf10 (11716521_a_at) / Fold change /veh C10orf10 (11716521_a_at) / RFU C5orf56 (11738089_at) / Fold change /veh C5orf56 (11738089_at) / RFU CYB561 (11721691_x_at) / Fold change /veh CYB561 (11721691_x_at) / RFU ANKRD19P (11752326_a_at) / Fold change /veh ANKRD19P (11752326_a_at) / RFU OR2T12 /// OR2T33 /// OR2T8 (11738714_s_at) / Fold change /veh OR2T12 /// OR2T33 /// OR2T8 (11738714_s_at) / RFU VCAN (11748164_a_at) / Fold change /veh VCAN (11748164_a_at) / RFU JSRP1 (11732532_at) / Fold change /veh JSRP1 (11732532_at) / RFU KRTAP10-11 (11738290_x_at) / Fold change /veh KRTAP10-11 (11738290_x_at) / RFU MYO3A (11730013_a_at) / Fold change /veh MYO3A (11730013_a_at) / RFU EBF3 (11725865_a_at) / Fold change /veh EBF3 (11725865_a_at) / RFU CAMK2N1 (11719241_x_at) / Fold change /veh CAMK2N1 (11719241_x_at) / RFU C5orf56 (11738088_a_at) / Fold change /veh C5orf56 (11738088_a_at) / RFU OLFML3 (11715873_a_at) / Fold change /veh OLFML3 (11715873_a_at) / RFU LOC100653217 /// NTM (11731650_a_at) / Fold change /veh LOC100653217 /// NTM (11731650_a_at) / RFU MAPK11 (11762145_a_at) / Fold change /veh MAPK11 (11762145_a_at) / RFU FIZ1 (11724087_x_at) / Fold change /veh FIZ1 (11724087_x_at) / RFU OASL (11726364_x_at) / Fold change /veh OASL (11726364_x_at) / RFU SOX15 (11748057_x_at) / Fold change /veh SOX15 (11748057_x_at) / RFU CD79A (11719716_a_at) / Fold change /veh CD79A (11719716_a_at) / RFU HIST1H1D (11736915_at) / Fold change /veh HIST1H1D (11736915_at) / RFU CASKIN2 (11723855_a_at) / Fold change /veh CASKIN2 (11723855_a_at) / RFU LOC730098 (11760151_x_at) / Fold change /veh LOC730098 (11760151_x_at) / RFU OR4N2 (11742367_at) / Fold change /veh OR4N2 (11742367_at) / RFU PRRT2 (11749266_a_at) / Fold change /veh PRRT2 (11749266_a_at) / RFU SNX32 (11753110_a_at) / Fold change /veh SNX32 (11753110_a_at) / RFU CDHR5 (11726645_a_at) / Fold change /veh CDHR5 (11726645_a_at) / RFU RCAN1 (11760418_a_at) / Fold change /veh RCAN1 (11760418_a_at) / RFU FAM167A (11723789_a_at) / Fold change /veh FAM167A (11723789_a_at) / RFU FAM26E (11764081_at) / Fold change /veh FAM26E (11764081_at) / RFU ISYNA1 (11749810_s_at) / Fold change /veh ISYNA1 (11749810_s_at) / RFU ACY1 (11761880_at) / Fold change /veh ACY1 (11761880_at) / RFU 11764098_at / Fold change /veh 11764098_at / RFU SAMD14 (11745864_x_at) / Fold change /veh SAMD14 (11745864_x_at) / RFU NPB (11741838_a_at) / Fold change /veh NPB (11741838_a_at) / RFU TMPRSS6 (11731388_a_at) / Fold change /veh TMPRSS6 (11731388_a_at) / RFU KRTAP10-2 (11738614_at) / Fold change /veh KRTAP10-2 (11738614_at) / RFU ARHGAP8 /// PRR5-ARHGAP8 (11727945_x_at) / Fold change /veh ARHGAP8 /// PRR5-ARHGAP8 (11727945_x_at) / RFU KRTAP5-7 /// NADSYN1 (11734609_at) / Fold change /veh KRTAP5-7 /// NADSYN1 (11734609_at) / RFU RASL12 (11751679_a_at) / Fold change /veh RASL12 (11751679_a_at) / RFU CDKN2B (11736163_a_at) / Fold change /veh CDKN2B (11736163_a_at) / RFU PRF1 (11729649_at) / Fold change /veh PRF1 (11729649_at) / RFU, ZNF638 /// ZNF638-IT1 / Fold change vs veh, ZNF638 /// ZNF638-IT1 / RFU, PANK3 / Fold change vs veh, PANK3 / RFU, SH3YL1 / Fold change vs veh, SH3YL1 / RFU, ZEB2 / Fold change vs veh, ZEB2 / RFU, NRIP1 / Fold change vs veh, NRIP1 / RFU, PTTG1IP / Fold change vs veh, PTTG1IP / RFU, CAPN2 / Fold change vs veh, CAPN2 / RFU, MED14 / Fold change vs veh, MED14 / RFU, SNORA58 / Fold change vs veh, SNORA58 / RFU, C1orf63 / Fold change vs veh, C1orf63 / RFU, LRRFIP1 / Fold change vs veh, LRRFIP1 / RFU, NDUFAF7 / Fold change vs veh, NDUFAF7 / RFU, SLC12A2 / Fold change vs veh, SLC12A2 / RFU, IBTK / Fold change vs veh, IBTK / RFU, ESF1 / Fold change vs veh, ESF1 / Fold change vs veh, TMEM50B / RFU, TAOK1 / Fold change vs veh, TAOK1 / RFU, ACBD3 / Fold change vs veh, ACBD3 / RFU, TMA16 / Fold change vs veh, TMA16 / RFU, RWDD3 / Fold change vs veh, RWDD3 / RFU, BCAT1 / Fold change vs veh, BCAT1 / RFU, EDEM3 / Fold change vs veh, EDEM3 / RFU, TMEM33 / Fold change vs veh, TMEM33 / RFU, WDR75 / Fold change vs veh, WDR75 / RFU, AHCTF1 / Fold change vs veh, AHCTF1 / RFU, TFRC / Fold change vs veh, TFRC / RFU, ZDHHC17 / Fold change vs veh, ZDHHC17 / RFU, NOM1 / Fold change vs veh, NOM1 / RFU, ARL8B / Fold change vs veh, ARL8B / RFU, ZBTB11 / Fold change vs veh, ZBTB11 / RFU, TAMM41 / Fold change vs veh, TAMM41 / RFU, KIAA1704 /// LOC100996395 / Fold change vs veh, KIAA1704 /// LOC100996395 / RFU, ING1 / Fold change vs veh, ING1 / RFU, TRMT61B / Fold change vs veh, TRMT61B / RFU, FUBP3 / Fold change vs veh, FUBP3 / RFU, TP53 / Fold change vs veh, TP53 / RFU, TNKS2 / Fold change vs veh, TNKS2 / RFU, ZFP14 / Fold change vs veh, ZFP14 / RFU, ACTR2 / Fold change vs veh, ACTR2 / RFU, PPP3R1 / Fold change vs veh, PPP3R1 / RFU, PIK3R1 / Fold change vs veh, PIK3R1 / RFU, HNRNPA1 / Fold change vs veh, HNRNPA1 / RFU, RNF170 / Fold change vs veh, RNF170 / RFU, ZNF28 / Fold change vs veh, ZNF28 / RFU, RNGTT / Fold change vs veh, RNGTT / RFU, OGT / Fold change vs veh, OGT / RFU, BRD1 / Fold change vs veh, BRD1 / RFU, MARS / Fold change vs veh, MARS / RFU, ZNF655 / Fold change vs veh, ZNF655 / RFU, FAHD1 / Fold change vs veh, FAHD1 / RFU, BDP1 / Fold change vs veh, BDP1 / RFU, LRRCC1 / Fold change vs veh, LRRCC1 / RFU, ARID1A / Fold change vs veh, ARID1A / RFU, ZNF146 / Fold change vs veh, ZNF146 / RFU, ZNF330 / Fold change vs veh, ZNF330 / RFU, GPN3 / Fold change vs veh, GPN3 / RFU, C9orf123 / Fold change vs veh, C9orf123 / RFU, N4BP2L2 / Fold change vs veh, N4BP2L2 / RFU, ARFIP1 / Fold change vs veh, ARFIP1 / RFU, FAM179B / Fold change vs veh, FAM179B / RFU, BCL10 / Fold change vs veh, BCL10 / RFU, UHRF1BP1L / Fold change vs veh, UHRF1BP1L / RFU, BET1 / Fold change vs veh, BET1 / RFU, CNOT2 / Fold change vs veh, CNOT2 / RFU, ZNF268 / Fold change vs veh, ZNF268 / Fold change vs veh, ZNF507 / RFU, DGCR2 / Fold change vs veh, DGCR2 / RFU, WDSUB1 / Fold change vs veh, WDSUB1 / Fold change vs veh, HSP90B1 /// MIR3652 / RFU, ADSS / Fold change vs veh, ADSS / RFU, GK / Fold change vs veh, GK / RFU, ZNF148 / Fold change vs veh, ZNF148 / RFU, TAF9 / Fold change vs veh, TAF9 / RFU, SLC1A5 / Fold change vs veh, SLC1A5 / RFU, SLMO2 / Fold change vs veh, SLMO2 / RFU, ABCC4 / Fold change vs veh, ABCC4 / RFU, LOC101060439 /// RAP1B / Fold change vs veh, LOC101060439 /// RAP1B / RFU, RFX7 / Fold change vs veh, RFX7 / RFU, GTPBP10 / Fold change vs veh, GTPBP10 / RFU, CNEP1R1 / Fold change vs veh, CNEP1R1 / RFU, BIVM-ERCC5 /// ERCC5 / Fold change vs veh, BIVM-ERCC5 /// ERCC5 / RFU, ILF3 / Fold change vs veh, ILF3 / RFU 11762660_at / Fold change /veh 11762660_at / RFU VCAN (11757783_s_at) / Fold change /veh VCAN (11757783_s_at) / RFU DDX43 (11728927_at) / Fold change /veh DDX43 (11728927_at) / RFU KRT8 (11758188_x_at) / Fold change /veh KRT8 (11758188_x_at) / RFU NKD1 (11759106_at) / Fold change /veh NKD1 (11759106_at) / RFU SRD5A1 (11742802_a_at) / Fold change /veh SRD5A1 (11742802_a_at) / RFU TPSAB1 /// TPSB2 (11721975_s_at) / Fold change /veh TPSAB1 /// TPSB2 (11721975_s_at) / RFU GSTM3 (11746129_a_at) / Fold change /veh GSTM3 (11746129_a_at) / RFU IL23R (11737362_x_at) / Fold change /veh IL23R (11737362_x_at) / RFU TMEM51 (11727254_a_at) / Fold change /veh TMEM51 (11727254_a_at) / RFU PIWIL2 (11732686_x_at) / Fold change /veh PIWIL2 (11732686_x_at) / RFU ORM1 (11744905_x_at) / Fold change /veh ORM1 (11744905_x_at) / RFU CCDC152 (11743942_at) / Fold change /veh CCDC152 (11743942_at) / RFU ECM1 (11717891_a_at) / Fold change /veh ECM1 (11717891_a_at) / RFU IL23R (11748794_a_at) / Fold change /veh IL23R (11748794_a_at) / RFU TNFAIP8L3 (11732012_x_at) / Fold change /veh TNFAIP8L3 (11732012_x_at) / RFU MBOAT4 (11741988_at) / Fold change /veh MBOAT4 (11741988_at) / RFU 11764193_at / Fold change /veh 11764193_at / RFU TMEM53 (11763286_at) / Fold change /veh TMEM53 (11763286_at) / RFU MAGEB2 (11727129_at) / Fold change /veh MAGEB2 (11727129_at) / RFU TMEM200A (11744735_a_at) / Fold change /veh TMEM200A (11744735_a_at) / RFU CCDC152 (11751479_a_at) / Fold change /veh CCDC152 (11751479_a_at) / RFU FAM211A (11726209_a_at) / Fold change /veh FAM211A (11726209_a_at) / RFU RGS16 (11746705_a_at) / Fold change /veh RGS16 (11746705_a_at) / RFU VCAN (11755009_s_at) / Fold change /veh VCAN (11755009_s_at) / RFU RHOB (11743442_s_at) / Fold change /veh RHOB (11743442_s_at) / RFU RGS16 (11720943_a_at) / Fold change /veh RGS16 (11720943_a_at) / RFU RGS16 (11720944_at) / Fold change /veh RGS16 (11720944_at) / RFU, VPS4B / Fold change vs veh, VPS4B / RFU, CREB1 / Fold change vs veh, CREB1 / RFU, DNAJC13 / Fold change vs veh, DNAJC13 / RFU, GNAQ / Fold change vs veh, GNAQ / RFU, CDK5R1 / Fold change vs veh, CDK5R1 / RFU, ZRANB3 / Fold change vs veh, ZRANB3 / RFU, CUL4A / Fold change vs veh, CUL4A / RFU, CCNY / Fold change vs veh, CCNY / RFU, UFL1 / Fold change vs veh, UFL1 / RFU, COG3 / Fold change vs veh, COG3 / RFU, DIAPH2 / Fold change vs veh, DIAPH2 / RFU, SKA2 / Fold change vs veh, SKA2 / RFU, AFF3 / Fold change vs veh, AFF3 / RFU, LMF1 / Fold change vs veh, LMF1 / RFU, IPO11 / Fold change vs veh, IPO11 / RFU, DFFB / Fold change vs veh, DFFB / RFU, FOXP1 / Fold change vs veh, FOXP1 / RFU, CARD8 / Fold change vs veh, CARD8 / RFU, STRN3 / Fold change vs veh, STRN3 / RFU, ADK / Fold change vs veh, ADK / RFU, RASSF2 / Fold change vs veh, RASSF2 / RFU, WIPF1 / Fold change vs veh, WIPF1 / RFU, LARP1B / Fold change vs veh, LARP1B / RFU, RASA1 / Fold change vs veh, RASA1 / RFU, RB1 / Fold change vs veh, RB1 / RFU, PPFIA1 / Fold change vs veh, PPFIA1 / RFU, MAT2A / Fold change vs veh, MAT2A / RFU, CCT5 / Fold change vs veh, CCT5 / RFU, WDR92 / Fold change vs veh, WDR92 / RFU, CUX1 / Fold change vs veh, CUX1 / RFU, TTC7A / Fold change vs veh, TTC7A / RFU, TMEM135 / Fold change vs veh, TMEM135 / RFU, DEPTOR / Fold change vs veh, DEPTOR / RFU, CPM / Fold change vs veh, CPM / RFU, DNAJB6 / Fold change vs veh, DNAJB6 / RFU, CACNA2D3 / Fold change vs veh, CACNA2D3 / RFU, DTX4 / Fold change vs veh, DTX4 / RFU, TFCP2 / Fold change vs veh, TFCP2 / RFU, GMCL1 /// GMCL1P1 / Fold change vs veh, GMCL1 /// GMCL1P1 / RFU, AEBP2 / Fold change vs veh, AEBP2 / RFU, SNHG1 /// SNORD22 /// SNORD25 /// SNORD26 /// SNORD27 /// SNORD28 /// SNORD29 /// SNORD31 / Fold change vs veh, SNHG1 /// SNORD22 /// SNORD25 /// SNORD26 /// SNORD27 /// SNORD28 /// SNORD29 /// SNORD31 / Fold change (Aza/veh), C12orf56 (ProbeSet 11735607_a_at) / Fold change (ACY-1035/veh), C12orf56 (ProbeSet 11735607_a_at) / Fold change (Aza/veh), FGFR1OP (ProbeSet 11751329_s_at) / Fold change (ACY-1035/veh), FGFR1OP (ProbeSet 11751329_s_at) / Fold change (Aza/veh), VPS36 (ProbeSet 11739960_a_at) / Fold change (ACY-1035/veh), VPS36 (ProbeSet 11739960_a_at) / RFU SYPL1 (11715823_x_at) / Fold change /veh SYPL1 (11715823_x_at) / RFU IGFBP7 (11715501_s_at) / Fold change /veh IGFBP7 (11715501_s_at) / RFU REEP3 (11722064_at) / Fold change /veh REEP3 (11722064_at) / RFU IGLL1 (11728026_x_at) / Fold change /veh IGLL1 (11728026_x_at): dose or concentration left out as unconfirmed
Conditions: ProbeSet 11741123_x_at; LIST D

## Nc1ccc(-c2cccs2)cc1NC(=O)c1ccc2c(c1)cc(C1CC1)n2CCN1CCOCC1 [ACY-1035]
  Fold change vs veh, ADK: 0.96
